A value given as a limit tells only on which side of the number the result lay.

The target in the test is T1, C5a anaphylatoxin chemotactic receptor 1 (Homo sapiens, UniProt P21730).
T1 sequence (P21730 whole entry): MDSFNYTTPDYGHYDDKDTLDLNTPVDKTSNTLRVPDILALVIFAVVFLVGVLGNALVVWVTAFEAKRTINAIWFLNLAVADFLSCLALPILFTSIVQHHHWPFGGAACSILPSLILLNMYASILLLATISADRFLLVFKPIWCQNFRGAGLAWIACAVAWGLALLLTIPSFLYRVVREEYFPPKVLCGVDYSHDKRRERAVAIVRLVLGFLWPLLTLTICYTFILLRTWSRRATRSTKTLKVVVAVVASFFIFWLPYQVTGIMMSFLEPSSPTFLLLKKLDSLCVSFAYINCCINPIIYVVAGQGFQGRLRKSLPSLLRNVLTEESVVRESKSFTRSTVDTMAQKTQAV
Description: chemotaxis assay. The protocol: Optionally, compounds may be further assayed for their ability to inhibit chemotaxis in cells. Chemotaxis assays are performed using 5 μm pore polycarbonate, polyvinylpyrrolidone-coated filters in 96-well chemotaxis chambers (Neuroprobe; Gaithersburg, Md.) using chemotaxis buffer (Hank's balanced salt solution (HBSS) and 1% FBS). C5aR ligands (i.e., C5a, R&D Systems; Minneapolis, Minn.) are use to evaluate compound mediated inhibition of C5aR mediated migration. Other chemokines (i.e., SDF-1α; R&D Systems; Minneapolis, Minn.) are used as specificity controls. The lower chamber is loaded with 29 μl of chemokine (i.e., 0.03 nM C5a) and varying amounts of compound; the top chamber contains 100,000 U937 or neutrophil cells in 20 μl. The chambers are incubated 1.5 hours at 37° C., and the number of cells in the lower chamber quantified either by direct cell counts in five high powered fields per well or by the CyQuant assay (Molecular Probes), a fluorescent dye method that measures nucleic acid content and microscopic observation.

With `Cc1cccc(OCC(C)C)c1-n1nc2c(c1-c1ccc(NC(N)=O)c(F)c1)CN(c1ncc(Cl)cc1F)CC2` [US11478460, Compound 1.250], the concentration for half-maximal inhibition (IC50) was < 5 nM.

As to `Cc1cccc(OCC(C)C)c1-n1nc2c(c1-c1ccc(NC(N)=O)cc1)CN(c1cccc(C(C)(C)C)n1)CC2` [US11478460, Compound 1.394], the IC50 was < 5 nM.

The term IC50 denotes the midpoint of a concentration-inhibition curve.

Values taken from BindingDB's records for patent US11478460 (Chemocentryx, 2022).
